Each structure is given as a SMILES string. In brackets after ≈: the same amount, converted by molar mass. Activity calls are given as the source filed them. The rule behind the calls is not given here.

For the first assay, the system named is Klebsiella aerogenes. Put plainly: Antibacterial activity against Klebsiella aerogenes assessed as diameter of growth inhibition zone at 2 mg/ml at 37 degC after 24 hrs by agar well diffusion method. It is filed as functional. The settings on record: read-out: DIZ.
For the compound `O=c1oc2ccc(Br)cc2cc1-c1csc(N2N=C(C(F)(F)F)C[C@@]2(O)C(F)(F)F)n1`, the zone of inhibition at 2000 µg/mL was found to be 11 mm.
On the same count and under the same terms, with `O=c1oc2ccc(Br)cc2cc1-c1csc(N2N=C(c3ccc(Cl)cc3)C[C@@]2(O)C(F)(F)F)n1` the figure was 13 mm.
Still for that read-out and setting: in the case of `C=CC1=C(C(=O)O)N2C(=O)[C@@H](NC(=O)/C(=N\OCC(=O)O)c3csc(N)n3)[C@H]2SC1` [CEFIXIME] it was 15 mm.

The next assay deals with Proteus mirabilis. Nature of the assay: Antibacterial activity against Proteus mirabilis assessed as growth inhibition at 37 degC after overnight incubation by agar well diffusion method. It is filed as functional.
Details: not given
Consider `O=c1oc2ccc(Br)cc2cc1-c1csc(N2N=C(C(F)(F)F)C[C@@]2(O)C(F)(F)F)n1`, for which the minimum inhibitory concentration (MIC) stood at 16 µg/mL (≈ 30.3 µM).
As to `O=c1oc2ccc(Br)cc2cc1-c1csc(N2N=C(c3ccc(Cl)cc3)C[C@@]2(O)C(F)(F)F)n1`, the MIC was 16 µg/mL (≈ 28 µM).
`C=CC1=C(C(=O)O)N2C(=O)[C@@H](NC(=O)/C(=N\OCC(=O)O)c3csc(N)n3)[C@H]2SC1` [CEFIXIME]: the minimum inhibitory concentration (MIC) was determined as 2 µg/mL (≈ 4.41 µM).

The next assay has as its system Bacillus subtilis. Nature of the assay: Antibacterial activity against Bacillus subtilis assessed as diameter of growth inhibition zone at 2 mg/ml at 37 degC after 24 hrs by agar well diffusion method. It is filed as functional. As to conditions: read-out: DIZ.
Consider `O=c1oc2ccc(Br)cc2cc1-c1csc(N2N=C(C(F)(F)F)C[C@@]2(O)C(F)(F)F)n1`, for which the zone of inhibition at 2000 µg/mL amounted to 25 mm.
Turning to `O=c1oc2ccc(Br)cc2cc1-c1csc(N2N=C(c3ccc(Cl)cc3)C[C@@]2(O)C(F)(F)F)n1`, the zone of inhibition at 2000 µg/mL was 10.3 mm.
Same read-out and setting: in the case of `C=CC1=C(C(=O)O)N2C(=O)[C@@H](NC(=O)/C(=N\OCC(=O)O)c3csc(N)n3)[C@H]2SC1` [CEFIXIME] it was 26 mm.

A further assay has as its system Proteus mirabilis. Nature of the assay: Antibacterial activity against Proteus mirabilis assessed as diameter of growth inhibition zone at 2 mg/ml at 37 degC after 24 hrs by agar well diffusion method. As to conditions: read-out: DIZ. It is filed as functional.
Regarding `O=c1oc2ccc(Br)cc2cc1-c1csc(N2N=C(C(F)(F)F)C[C@@]2(O)C(F)(F)F)n1`, the zone of inhibition at 2000 µg/mL was 17.2 mm.
Same read-out and setting: with `O=c1oc2ccc(Br)cc2cc1-c1csc(N2N=C(c3ccc(Cl)cc3)C[C@@]2(O)C(F)(F)F)n1` the figure was 15.1 mm.
Still for that read-out and setting: with `C=CC1=C(C(=O)O)N2C(=O)[C@@H](NC(=O)/C(=N\OCC(=O)O)c3csc(N)n3)[C@H]2SC1` [CEFIXIME] the figure was 20 mm.

The next assay deals with Staphylococcus epidermidis. Put plainly: Antibacterial activity against Staphylococcus epidermidis assessed as diameter of growth inhibition zone at 2 mg/ml at 37 degC after 24 hrs by agar well diffusion method. It is filed as functional. As to conditions: read-out: DIZ.
On to `O=c1oc2ccc(Br)cc2cc1-c1csc(N2N=C(C(F)(F)F)C[C@@]2(O)C(F)(F)F)n1`, for which the zone of inhibition at 2000 µg/mL was determined as 20.1 mm.
Still for that read-out and setting: with `O=c1oc2ccc(Br)cc2cc1-c1csc(N2N=C(c3ccc(Cl)cc3)C[C@@]2(O)C(F)(F)F)n1` the figure was 12.5 mm.
In the case of `C=CC1=C(C(=O)O)N2C(=O)[C@@H](NC(=O)/C(=N\OCC(=O)O)c3csc(N)n3)[C@H]2SC1` [CEFIXIME], the zone of inhibition at 2000 µg/mL is 22 mm.

Another assay relates to Staphylococcus aureus. Put plainly: Antibacterial activity against Staphylococcus aureus assessed as growth inhibition at 37 degC after overnight incubation by agar well diffusion method. It is filed as functional.
Details: not given
As to `O=c1oc2ccc(Br)cc2cc1-c1csc(N2N=C(C(F)(F)F)C[C@@]2(O)C(F)(F)F)n1`, the MIC was 64 µg/mL (≈ 121 µM).
As to `O=c1oc2ccc(Br)cc2cc1-c1csc(N2N=C(c3ccc(Cl)cc3)C[C@@]2(O)C(F)(F)F)n1`, the minimum inhibitory concentration (MIC) stood at 128 µg/mL (≈ 224 µM).
The same measure, in the same setting: with `C=CC1=C(C(=O)O)N2C(=O)[C@@H](NC(=O)/C(=N\OCC(=O)O)c3csc(N)n3)[C@H]2SC1` [CEFIXIME] the figure was 2 µg/mL (≈ 4.41 µM).

A further assay concerns Klebsiella aerogenes. Put plainly: Antibacterial activity against Klebsiella aerogenes assessed as growth inhibition at 37 degC after overnight incubation by agar well diffusion method. It is filed as functional.
Details: not given
For the compound `O=c1oc2ccc(Br)cc2cc1-c1csc(N2N=C(C(F)(F)F)C[C@@]2(O)C(F)(F)F)n1`, the MIC amounted to 512 µg/mL (≈ 969 µM).
As to `O=c1oc2ccc(Br)cc2cc1-c1csc(N2N=C(c3ccc(Cl)cc3)C[C@@]2(O)C(F)(F)F)n1`, the MIC was 8 µg/mL (≈ 14 µM).
Same read-out and setting: with `C=CC1=C(C(=O)O)N2C(=O)[C@@H](NC(=O)/C(=N\OCC(=O)O)c3csc(N)n3)[C@H]2SC1` [CEFIXIME] the figure was 2 µg/mL (≈ 4.41 µM).

For the next assay, the system named is Staphylococcus epidermidis. Nature of the assay: Antibacterial activity against Staphylococcus epidermidis assessed as growth inhibition at 37 degC after overnight incubation by agar well diffusion method. It is filed as functional.
Details: not given
`O=c1oc2ccc(Br)cc2cc1-c1csc(N2N=C(C(F)(F)F)C[C@@]2(O)C(F)(F)F)n1`: the MIC stood at 16 µg/mL (≈ 30.3 µM).
The same measure, in the same setting: in the case of `O=c1oc2ccc(Br)cc2cc1-c1csc(N2N=C(c3ccc(Cl)cc3)C[C@@]2(O)C(F)(F)F)n1` it was 512 µg/mL (≈ 897 µM); in that of `C=CC1=C(C(=O)O)N2C(=O)[C@@H](NC(=O)/C(=N\OCC(=O)O)c3csc(N)n3)[C@H]2SC1` [CEFIXIME], 2 µg/mL (≈ 4.41 µM).

The subject of a further assay is Pseudomonas aeruginosa. Put plainly: Antibacterial activity against Pseudomonas aeruginosa assessed as diameter of growth inhibition zone at 2 mg/ml at 37 degC after 24 hrs by agar well diffusion method. It is filed as functional. As to conditions: read-out: DIZ.
Regarding `O=c1oc2ccc(Br)cc2cc1-c1csc(N2N=C(C(F)(F)F)C[C@@]2(O)C(F)(F)F)n1`, the zone of inhibition at 2000 µg/mL came out at 9.13 mm.
As for `O=c1oc2ccc(Br)cc2cc1-c1csc(N2N=C(c3ccc(Cl)cc3)C[C@@]2(O)C(F)(F)F)n1`, the zone of inhibition at 2000 µg/mL worked out at 8.1 mm.
Regarding `C=CC1=C(C(=O)O)N2C(=O)[C@@H](NC(=O)/C(=N\OCC(=O)O)c3csc(N)n3)[C@H]2SC1` [CEFIXIME], the zone of inhibition at 2000 µg/mL came to 10 mm.

In another assay the test system is Escherichia coli. Nature of the assay: Antibacterial activity against Escherichia coli assessed as diameter of growth inhibition zone at 2 mg/ml at 37 degC after 24 hrs by agar well diffusion method. It is filed as functional.
Details: not given
Turning to `O=c1oc2ccc(Br)cc2cc1-c1csc(N2N=C(c3ccc(Cl)cc3)C[C@@]2(O)C(F)(F)F)n1`, the “diameter of the inhibition zone (DIZ)” value is “inactive”.

The same assay, now with this note: read-out: DIZ.
On to `O=c1oc2ccc(Br)cc2cc1-c1csc(N2N=C(C(F)(F)F)C[C@@]2(O)C(F)(F)F)n1`, for which the zone of inhibition at 2000 µg/mL came out at 11.9 mm.
As to `C=CC1=C(C(=O)O)N2C(=O)[C@@H](NC(=O)/C(=N\OCC(=O)O)c3csc(N)n3)[C@H]2SC1` [CEFIXIME], the zone of inhibition at 2000 µg/mL was 14.1 mm.

The test system of the next assay is Pseudomonas aeruginosa. Nature of the assay: Antibacterial activity against Pseudomonas aeruginosa assessed as growth inhibition at 37 degC after overnight incubation by agar well diffusion method. It is filed as functional.
Details: not given
Take `O=c1oc2ccc(Br)cc2cc1-c1csc(N2N=C(C(F)(F)F)C[C@@]2(O)C(F)(F)F)n1`: the minimum inhibitory concentration (MIC) is 128 µg/mL (≈ 242 µM).
The same measure, in the same setting: in the case of `O=c1oc2ccc(Br)cc2cc1-c1csc(N2N=C(c3ccc(Cl)cc3)C[C@@]2(O)C(F)(F)F)n1` it was 128 µg/mL (≈ 224 µM); in that of `C=CC1=C(C(=O)O)N2C(=O)[C@@H](NC(=O)/C(=N\OCC(=O)O)c3csc(N)n3)[C@H]2SC1` [CEFIXIME], 2 µg/mL (≈ 4.41 µM).

A further assay relates to Bacillus subtilis. Put plainly: Antibacterial activity against Bacillus subtilis assessed as growth inhibition at 37 degC after overnight incubation by agar well diffusion method. It is filed as functional.
Details: not given
Consider `O=c1oc2ccc(Br)cc2cc1-c1csc(N2N=C(C(F)(F)F)C[C@@]2(O)C(F)(F)F)n1`, for which the MIC stood at 8 µg/mL (≈ 15.1 µM).
Same read-out and setting: with `O=c1oc2ccc(Br)cc2cc1-c1csc(N2N=C(c3ccc(Cl)cc3)C[C@@]2(O)C(F)(F)F)n1` the figure was 512 µg/mL (≈ 897 µM); with `C=CC1=C(C(=O)O)N2C(=O)[C@@H](NC(=O)/C(=N\OCC(=O)O)c3csc(N)n3)[C@H]2SC1` [CEFIXIME], 2 µg/mL (≈ 4.41 µM).

The test system of the next assay is Staphylococcus aureus. Nature of the assay: Antibacterial activity against Staphylococcus aureus assessed as diameter of growth inhibition zone at 2 mg/ml at 37 degC after 24 hrs by agar well diffusion method. It is filed as functional. The settings on record: read-out: DIZ.
For the compound `O=c1oc2ccc(Br)cc2cc1-c1csc(N2N=C(C(F)(F)F)C[C@@]2(O)C(F)(F)F)n1`, the zone of inhibition at 2000 µg/mL was 3.13 mm.
As for `O=c1oc2ccc(Br)cc2cc1-c1csc(N2N=C(c3ccc(Cl)cc3)C[C@@]2(O)C(F)(F)F)n1`, the zone of inhibition at 2000 µg/mL was 2 mm.
With `C=CC1=C(C(=O)O)N2C(=O)[C@@H](NC(=O)/C(=N\OCC(=O)O)c3csc(N)n3)[C@H]2SC1` [CEFIXIME], the zone of inhibition at 2000 µg/mL turned out to be 3.9 mm.

In the next assay the test system is Escherichia coli. Put plainly: Antibacterial activity against Escherichia coli assessed as growth inhibition at 37 degC after overnight incubation by agar well diffusion method. It is filed as functional.
Details: not given
On to `O=c1oc2ccc(Br)cc2cc1-c1csc(N2N=C(C(F)(F)F)C[C@@]2(O)C(F)(F)F)n1`, for which the MIC came to 128 µg/mL (≈ 242 µM).
`C=CC1=C(C(=O)O)N2C(=O)[C@@H](NC(=O)/C(=N\OCC(=O)O)c3csc(N)n3)[C@H]2SC1` [CEFIXIME]: the MIC was 2 µg/mL (≈ 4.41 µM).

For the origin of these results see ChEMBL document CHEMBL2331091, “Synthesis and pharmacological evaluation of some novel 2-(5-hydroxy-5-trifluoromethyl-4,5-dihydropyrazol-1-yl)-4-(coumarin-3-yl)thiazoles” (2013).
